Measured values published in US8822500B2, “Tyrosine kinase inhibitors” (Chembridge Corporation, priority 2008, dated 2014).
Where “and” joins values, the source holds several entries; their conditions need not be identical. Equal entries are not always repeated. Where two headings read alike, the source gives them in different places.

Tests used:
ALK = ALK (Homo sapiens (Human), UniProt Q9UM73); assay: In vitro kinase activity assay (LANCE TR-FRET); format: biochemical;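 also: kinase reactions with ATP and a poly-GT peptide substrate, phosphorylated product read by time-resolved FRET, 11-point curve from 10^−11 to 10^−5 M, DMSO as negative control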
K299 lymphoma cells = assay: Cellular assay, 3 day cell viability (WST-1); format: cell-based; conditions: 72 h, 3 days, read-out: GTx-K299 IC50
U937 lymphoma cells = assay: Cellular assay, 3 day cell viability (WST-1); format: cell-based; conditions: Homo sapiens, U-937, 72 h; 3 days, WST-1; read-out: GTx-U937 IC50
TrkA = TrkA (Homo sapiens (Human), UniProt P04629); assay: In vitro kinase activity assay (LANCE TR-FRET); format: biochemical;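 also: kinase reaction with poly-GT peptide substrate and ATP, phosphorylated product quantified by time-resolved FRET, eleven-point dose curves from 10^−11 to 10^−5 M in triplicate, DMSO as negative control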
SUDHL-1 lymphoma cells = assay: Cellular assay, 3 day cell viability (WST-1); format: cell-based; conditions: Homo sapiens, SU-DHL-1, 72 h; 3 days, WST-1; read-out: GTx-SUDHL-1 IC50
in vitro [1] = conditions: human, microsomes; for microsomal CLint at 0.5 μM: pH 7.4, Human LM-P1 CL (ul/min/mg); for half-life at 0.5 μM: pH 7.4, Human LM-P1 Half-life (min)
in vitro [2] = conditions: rat, microsomes; for half-life at 0.5 μM: pH 7.4; for microsomal CLint at 0.5 μM: pH 7.4, Rat LM-P1 CL (ul/min/mg)
Caco-2 cells = assay: Caco-2 cell permeation study; format: in vitro ADME; conditions: 10 μM; for Papp (10−6 cm/sec) A to B: apical pH 6.5, 2 h; for Papp (10−6 cm/sec) B to A: basolateral pH 7.4, 2 h;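 as to all read-outs here: Caco-2 monolayers grown for 21–28 days with integrity confirmed by TEER, apical buffer HBSS with MES, basolateral buffer HBSS with HEPES, compound levels quantified by LC/MS/MS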
[3] = Caco-2 cell permeation study; format: in vitro ADME; conditions: human; for Papp A→B at 2 h, 10 μM: Caco-2, pH 6.5, 10 μM, apical pH 6.5, 2 h; for efflux ratio at 2 h, 10 μM: Caco-2, Caco-2; for Papp B→A at 2 h, 10 μM: Caco-2, pH 7.4, 10 μM, basolateral pH 7.4, 2 h;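 as to all read-outs here: Caco-2 monolayers grown for 21–28 days with integrity confirmed by TEER, apical buffer HBSS with MES, basolateral buffer HBSS with HEPES, compound levels quantified by LC/MS/MS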
[4] = Metabolic stability, Phase I microsome reactions; format: in vitro ADME, mouse; conditions: mouse, liver microsomes, pH 7.4, Phase I only, 1.0 mg/ml microsomes
[5] = Rat pharmacokinetics / bioavailability; format: in vivo

Sequence of ALK (Q9UM73 19-1620): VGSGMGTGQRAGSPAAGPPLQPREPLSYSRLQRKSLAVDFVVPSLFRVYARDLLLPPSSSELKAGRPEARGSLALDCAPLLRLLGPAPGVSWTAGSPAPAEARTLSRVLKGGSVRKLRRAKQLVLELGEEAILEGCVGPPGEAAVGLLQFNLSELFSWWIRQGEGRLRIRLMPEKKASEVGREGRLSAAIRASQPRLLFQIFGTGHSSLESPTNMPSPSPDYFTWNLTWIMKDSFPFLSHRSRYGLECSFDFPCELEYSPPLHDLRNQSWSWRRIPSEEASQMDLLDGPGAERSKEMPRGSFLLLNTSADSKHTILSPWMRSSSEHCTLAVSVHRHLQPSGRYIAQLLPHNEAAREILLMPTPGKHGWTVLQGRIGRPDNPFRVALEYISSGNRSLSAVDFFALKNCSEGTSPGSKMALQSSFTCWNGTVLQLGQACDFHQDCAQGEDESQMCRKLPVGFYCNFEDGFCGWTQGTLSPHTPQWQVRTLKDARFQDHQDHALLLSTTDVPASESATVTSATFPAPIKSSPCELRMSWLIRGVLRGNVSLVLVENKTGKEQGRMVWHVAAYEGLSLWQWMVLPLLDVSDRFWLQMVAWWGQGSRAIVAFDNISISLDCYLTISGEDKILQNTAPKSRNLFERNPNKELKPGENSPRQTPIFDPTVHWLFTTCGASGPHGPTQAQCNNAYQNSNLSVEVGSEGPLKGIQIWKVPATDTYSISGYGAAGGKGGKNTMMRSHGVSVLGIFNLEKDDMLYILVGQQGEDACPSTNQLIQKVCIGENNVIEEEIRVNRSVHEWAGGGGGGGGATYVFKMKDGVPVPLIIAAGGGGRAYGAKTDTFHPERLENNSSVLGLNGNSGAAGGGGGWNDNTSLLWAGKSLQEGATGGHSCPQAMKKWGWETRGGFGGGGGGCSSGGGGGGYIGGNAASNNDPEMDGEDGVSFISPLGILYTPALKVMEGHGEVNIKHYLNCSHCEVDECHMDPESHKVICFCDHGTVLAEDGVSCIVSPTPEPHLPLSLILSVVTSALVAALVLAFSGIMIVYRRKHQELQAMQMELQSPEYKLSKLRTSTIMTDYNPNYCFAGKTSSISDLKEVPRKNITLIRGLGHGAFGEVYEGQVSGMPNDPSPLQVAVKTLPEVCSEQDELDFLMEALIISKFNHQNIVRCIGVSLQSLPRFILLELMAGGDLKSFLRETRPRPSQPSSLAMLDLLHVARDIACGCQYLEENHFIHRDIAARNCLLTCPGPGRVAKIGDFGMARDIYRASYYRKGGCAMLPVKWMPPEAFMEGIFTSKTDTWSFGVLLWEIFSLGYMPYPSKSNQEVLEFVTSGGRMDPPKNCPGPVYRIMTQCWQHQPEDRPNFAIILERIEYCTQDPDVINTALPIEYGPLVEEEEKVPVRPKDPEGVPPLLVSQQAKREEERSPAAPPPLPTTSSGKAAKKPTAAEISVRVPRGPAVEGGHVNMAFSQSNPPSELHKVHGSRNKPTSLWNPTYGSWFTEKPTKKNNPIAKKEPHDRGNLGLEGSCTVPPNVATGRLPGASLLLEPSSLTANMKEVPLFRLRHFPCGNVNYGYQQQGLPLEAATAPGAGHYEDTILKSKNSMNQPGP
Sequence of TrkA (P04629 33-796): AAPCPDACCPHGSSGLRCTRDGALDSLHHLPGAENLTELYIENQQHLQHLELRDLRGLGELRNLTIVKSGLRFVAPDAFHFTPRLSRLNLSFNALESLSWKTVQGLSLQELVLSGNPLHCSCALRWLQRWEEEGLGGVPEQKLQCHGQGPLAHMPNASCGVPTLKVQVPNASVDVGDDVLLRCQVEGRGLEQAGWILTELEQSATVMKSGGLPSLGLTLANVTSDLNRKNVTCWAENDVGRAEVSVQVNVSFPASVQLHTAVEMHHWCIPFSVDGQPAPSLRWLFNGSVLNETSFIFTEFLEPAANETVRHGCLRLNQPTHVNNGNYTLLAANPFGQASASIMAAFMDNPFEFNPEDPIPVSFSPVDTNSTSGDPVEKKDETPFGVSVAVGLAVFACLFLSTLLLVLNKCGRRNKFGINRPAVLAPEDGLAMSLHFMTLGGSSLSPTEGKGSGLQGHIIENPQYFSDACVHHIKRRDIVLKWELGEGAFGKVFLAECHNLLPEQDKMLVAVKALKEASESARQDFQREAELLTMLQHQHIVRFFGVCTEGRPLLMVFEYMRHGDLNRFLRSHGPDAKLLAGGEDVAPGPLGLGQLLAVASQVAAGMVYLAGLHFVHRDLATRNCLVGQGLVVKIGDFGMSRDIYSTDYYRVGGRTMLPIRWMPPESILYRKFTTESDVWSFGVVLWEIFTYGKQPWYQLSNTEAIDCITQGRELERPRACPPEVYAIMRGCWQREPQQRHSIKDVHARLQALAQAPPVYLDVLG

| Structure (SMILES) | IC50 (ALK; read-out: ALK (nM) IC50) | IC50 (K299 lymphoma cells) | IC50 (U937 lymphoma cells) | IC50 (TrkA; read-out: TrkA (nM) IC50) | IC50 (SUDHL-1 lymphoma cells) | further results |
| --- | --- | --- | --- | --- | --- | --- |
| C[C@@H](Cc1cc(F)cc(F)c1F)Nc1cc[nH]c(=O)c1-c1nc2cc3c(cc2[nH]1)C(=O)N([C@@H](C)Cc1cc(F)cc(F)c1F)C3=O (stereo in doubt) [Compound 40, 2-(2-oxo-4-(1-(2,3,5-trifluorophenyl)propan-2-ylamino)-1,2-dihydropyridin-3-yl)-6-(1-(2,3,5-trifluorophenyl)propan-2-yl)imidazo[4,5-f]isoindole-5,7(1H,6H)-dione] | > 10000 nM | > 10000 nM | > 10000 nM | > 10000 nM | > 10000 nM | – |
| CC(Cc1cc(F)ccc1F)Nc1cc[nH]c(=O)c1-c1nc2cc3c(cc2[nH]1)C(=O)N(CCN(C)C)C3=O (centres unmarked) [Compound 17, 2-(4-(1-(2,5-Difluorophenyl)propan-2-ylamino)-2-oxo-1,2-dihydropyridin-3-yl)-6-(2-(dimethylamino)ethyl)imidazo[4,5-f]isoindole-5,7(1H,6H)-dione] | 38.9 nM | – | – | 17.5 nM | – | microsomal CLint at 0.5 μM (in vitro [1]): 8.77 µL/min/mg; half-life at 0.5 μM (in vitro [1]): 79.1 min; half-life at 0.5 μM (in vitro [2]): 25.6 min; microsomal CLint at 0.5 μM (in vitro [2]): 27.1 µL/min/mg |
| Cc1c2c(cc3[nH]c(-c4c(NC(C)Cc5c(F)c(F)cc(F)c5F)cc[nH]c4=O)nc13)CN(C1CCN(C)CC1)C2=O (centres unmarked) [Compound 24, 4-Methyl-6-(1-methylpiperidin-4-yl)-2-(2-oxo-4-(1-(2,3,5,6-tetrafluorophenyl)propan-2-ylamino)-1,2-dihydropyridin-3-yl)-6,7-dihydroimidazo[4,5-f]isoindol-5(1H)-one] | 23.7 nM | – | – | 10.4 nM | – | – |
| Cc1c2c(cc3[nH]c(-c4c(NC(C)Cc5c(F)c(F)cc(F)c5F)cc[nH]c4=O)nc13)C(=O)N(C1CCN(C)CC1)C2=O (centres unmarked) [Compound 29, 4-Methyl-6-(1-methylpiperidin-4-yl)-2-(2-oxo-4-(1-(2,3,5,6-tetrafluorophenyl)propan-2-ylamino)-1,2-dihydropyridin-3-yl)imidazo[4,5-f]isoindole-5,7(1H,6H)-dione] | 231 nM | – | – | 165 nM | – | – |
| C[C@@H](Cc1cc(F)ccc1F)Nc1cc[nH]c(=O)c1-c1nc2cc3c(cc2[nH]1)C(=O)N(C)C3=O [Compound 32, 2-(4-(1-(2,5-Difluorophenyl)propan-2-ylamino)-2-oxo-1,2-dihydropyridin-3-yl)-6-methylimidazo[4,5-f]isoindole-5,7(1H,6H)-dione] | > 300 nM | 784 nM | > 3000 nM | 30 to 100 nM | 957 nM | Papp (10−6 cm/sec) A to B (Caco-2 cells): >0.2 10−6 cm/sec; Papp (10−6 cm/sec) B to A (Caco-2 cells): 0.1 10−6 cm/sec; Papp A→B at 2 h, 10 μM [3]: < 0.2 ×10⁻⁶ cm/s; microsomal CLint at 0.5 μM ([4]; read-out: Mouse LM-P1 CL): < 5.8 µL/min/mg; half-life at 0.5 μM ([4]; read-out: Mouse LM-P1 Half-life): > 120 min; microsomal CLint at 0.5 μM (in vitro [1]): 7.81 µL/min/mg; half-life at 0.5 μM (in vitro [1]): 88.7 min; half-life at 0.5 μM (in vitro [2]): > 120 min; microsomal CLint at 0.5 μM (in vitro [2]): < 5.8 µL/min/mg; IC50 (ALK; read-out: GTx-ALK IC50): > 300 nM; IC50 (TrkA; read-out: GTx-TrKA IC50): > 30 nM |
| CC(Cc1cc(F)ccc1F)Nc1cc[nH]c(=O)c1-c1nc2cc3c(cc2[nH]1)C(=O)N(CC(O)CO)C3=O [Compound 34, 2-(4-(1-(2,5-Difluorophenyl)propan-2-ylamino)-2-oxo-1,2-dihydropyridin-3-yl)-6-(R)-2,3-dihydroxypropyl)imidazo[4,5-f]isoindole-5,7(1H,6H)-dione] | 13.8 nM and 4.71 nM | > 10000 nM | > 10000 nM | 6.97 nM and 3.7 nM | > 10000 nM | Papp (10−6 cm/sec) B to A (Caco-2 cells): 1.17 10−6 cm/sec; efflux ratio at 2 h, 10 μM [3]: > 5.9; Papp B→A at 2 h, 10 μM [3]: 1.17 ×10⁻⁶ cm/s; microsomal CLint at 0.5 μM (in vitro [1]): 9.16 µL/min/mg; half-life at 0.5 μM (in vitro [1]): 75.7 min; half-life at 0.5 μM (in vitro [2]): 33.6 min; microsomal CLint at 0.5 μM (in vitro [2]): 20.6 µL/min/mg; IC50 (ALK; read-out: GTx-ALK IC50): 14 nM; IC50 (TrkA; read-out: GTx-TrKA IC50): 7 nM |
| CC(Cc1cc(F)ccc1F)Nc1cc[nH]c(=O)c1-c1nc2cc3c(cc2[nH]1)C(=O)N(C(C)C)C3=O (centres unmarked) [Compound 36, 2-(4-((1-(2,5-Difluorophenyl)propan-2-yl)amino)-2-oxo-1,2-dihydropyridin-3-yl)-6-isopropylimidazo[4,5-f]isoindole-5,7(1H,6H)-dione] | – | 1830 nM | > 3000 nM | – | 2770 nM | – |
| CC(Cc1cc(F)ccc1F)Nc1cc[nH]c(=O)c1-c1nc2cc3c(cc2[nH]1)CN(C(C)C)C3=O (centres unmarked) [Compound 37, 2-(4-((1-(2,5-Difluorophenyl)propan-2-yl)amino)-2-oxo-1,2-dihydropyridin-3-yl)-6-isopropyl-6,7-dihydroimidazo[4,5-f]isoindol-5(1H)-one] | – | 1830 nM | > 3000 nM | – | 2770 nM | – |
| Cc1ccc(F)cc1CC(C)Nc1cc[nH]c(=O)c1-c1nc2cc3c(cc2[nH]1)C(=O)N(C(C)C)C3=O (centres unmarked) [Compound 38, 2-(4-((1-(5-Fluoro-2-methylphenyl)propan-2-yl)amino)-2-oxo-1,2-dihydropyridin-3-yl)-6-isopropylimidazo[4,5-f]isoindole-5,7(1H,6H)-dione] | – | > 3000 nM | > 3000 nM | – | 2800 nM | – |
| Cc1ccc(F)cc1CC(C)Nc1cc[nH]c(=O)c1-c1nc2cc3c(cc2[nH]1)CN(C(C)C)C3=O (centres unmarked) [Compound 39, 2-(4-((1-(5-Fluoro-2-methylphenyl)propan-2-yl)amino)-2-oxo-1,2-dihydropyridin-3-yl)-6-isopropyl-6,7-dihydroimidazo[4,5-f]isoindol-5(1H)-one] | – | > 3000 nM | > 3000 nM | – | 2800 nM | – |
| CC(Cc1c(F)c(F)cc(F)c1F)Nc1cc[nH]c(=O)c1-c1nc2cc3c(cc2[nH]1)C(=O)N(C)C3 (centres unmarked) [Compound 42, 6-Methyl-2-(2-oxo-4-(1-(2,3,5,6-tetrafluorophenyl)propan-2-ylamino)-1,2-dihydropyridin-3-yl)-6,7-dihydroimidazo[4,5-f]isoindole-5(1H)-one] | 17.5 nM | > 10000 nM | > 10000 nM | 7.27 nM | > 10000 nM | efflux ratio at 2 h, 10 μM [3]: 1; Papp A→B at 2 h, 10 μM [3]: 0.24 ×10⁻⁶ cm/s; Papp B→A at 2 h, 10 μM [3]: 0.24 ×10⁻⁶ cm/s; IV_AUC0-1440 Rat 10 mpk ([5]; 10 mg/kg I.V.): 232 µg·min/mL; PO_AUC0-1440 Rat 10 mpk ([5]; 10 mg/kg P.O.): 5.48 µg·min/mL; bioavailability ([5]; male, Sprague-Dawley, plasma, po, 10 mg/kg P.O., read-out: Rat F %): 2.36%; IC50 (ALK; read-out: GTx-ALK IC50): 18 nM; IC50 (TrkA; read-out: GTx-TrKA IC50): 7 nM |
| CC(Cc1c(F)c(F)cc(F)c1F)Nc1cc[nH]c(=O)c1-c1nc2cc3c(cc2n1C)CN(C)C3=O (stereo not drawn) [Compound 43, Trans-1,6-Dimethyl-2(2-oxo-4-(1-(2,3,5,6-tetrafluorophenyl)propan-2-ylamino)-1,2-dihydropyridin-3-yl)-6,7-dihydroimidazo[4,5-f]isoindol-5(1H)-one] | > 10000 nM | > 10000 nM | > 10000 nM | 9490 nM | > 10000 nM | IC50 (ALK; read-out: GTx-ALK IC50): > 10000 nM; IC50 (TrkA; read-out: GTx-TrKA IC50): 9500 nM |
| Cc1ccc(F)cc1CC(C)Nc1cc[nH]c(=O)c1-c1nc2cc3c(cc2[nH]1)CNC3=O (centres unmarked) [Compound 52] | – | – | – | – | – | Papp (10−6 cm/sec) A to B (Caco-2 cells): 5.0 10−6 cm/sec and 8.9 10−6 cm/sec; Papp (10−6 cm/sec) B to A (Caco-2 cells): 10.2 10−6 cm/sec and 5.2 10−6 cm/sec; Papp A→B at 2 h, 10 μM [3]: 9.3 ×10⁻⁶ cm/s; Papp B→A at 2 h, 10 μM [3]: 7.4 ×10⁻⁶ cm/s; microsomal CLint at 0.5 μM (in vitro [1]): 134 µL/min/mg; half-life at 0.5 μM (in vitro [1]): 5.17 min; half-life at 0.5 μM (in vitro [2]): 2.51 min; microsomal CLint at 0.5 μM (in vitro [2]): 276 µL/min/mg |
| CC(C)NCC(O)COc1cccc2ccccc12 (centres unmarked) [Propranolol, reference compound] | – | – | – | – | – | Pos Ctrl Recovery (Caco-2 cells; positive control): 63% and 58% and 26% |
